Test results as given in patent US9546194B2, “Aminosteroids for the treatment of a PTP1B associated disease” (Ohr Pharmaceutical Inc., priority 2012, dated 2017).

How the values were obtained:
ob/ob (Lep^ob) mouse [1] = test: Oral glucose tolerance test (OGTT) in ob/ob mouse; format: in vivo; conditions: ob/ob mice; for change in vivo: Mus musculus, 336 h, 5 or 10 mg/kg ip every 3 days, 4 doses, OGTT study day 14, 1.5 g/kg oral glucose, 0-120 min, read-out: AbAUC % Change From Saline; for reduction in AbAUC compared to saline control (significance): OGTT study day 14, p<0.05
Description: (§1) To determine in vivo efficacy of the aminosteroid analogues an ob/ob (Lep^ob) mouse model was used. Ob/ob mice are extensively used for screening of antidiabetic and/or anti-obesity agents. Ob/ob mice were treated with either saline or 5 or 10 mg/kg aminosteroid analogue every 3 days for a total of 4 doses via ip injection. Body weight, glucose tolerance and fasting blood glucose levels were measured for each group during the study. Each group had at least an N of 4 animals. All reagents and lab animals are commercially available.
On study day 14, an oral glucose tolerance test (OGTT) was performed to assess glucose tolerance. At time 0, an oral glucose challenge (1.5 g/kg) was administered by oral gavage. At time points 0, 15, 30, 60, 90, and 120 min post glucose load, 25 μl of whole blood was withdrawn from the tail vein of the animal and the glucose level was measured using a glucose analyzer. The glucose concentration vs time was plotted and the above baseline area under the curve (AbAUC) of the glucose excursion time curve was determined using trapezoidal rule analyses.

[2] = target: T1, full length tyrosine phosphatase PTP1B (Homo sapiens, UniProt P18031); test: Inhibition of PTP1B (pNPP hydrolysis, absorbance at 405 nm); format: biochemical; conditions: 5 μM aminosteroid analogue; pNPP substrate; read-out: PTP1B % Inhib. at (5 μM)
T1 construct: purchased
T1 sequence (P18031 1-435): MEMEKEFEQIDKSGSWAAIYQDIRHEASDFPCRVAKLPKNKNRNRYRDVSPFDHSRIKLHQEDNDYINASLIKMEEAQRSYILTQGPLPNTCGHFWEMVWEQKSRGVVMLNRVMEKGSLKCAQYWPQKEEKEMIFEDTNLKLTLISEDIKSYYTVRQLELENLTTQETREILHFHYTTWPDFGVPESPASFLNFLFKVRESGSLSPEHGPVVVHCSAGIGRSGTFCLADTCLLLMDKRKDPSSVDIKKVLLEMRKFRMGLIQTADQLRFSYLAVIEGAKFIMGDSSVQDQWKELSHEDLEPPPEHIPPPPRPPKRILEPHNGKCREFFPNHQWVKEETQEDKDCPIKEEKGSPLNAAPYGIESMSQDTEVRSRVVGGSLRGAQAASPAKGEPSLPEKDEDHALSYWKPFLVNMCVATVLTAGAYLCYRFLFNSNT
Description: (§2) The aminosteroid analogues were tested for inhibition against the commercially available full length tyrosine phosphatase PTP1B. The ability of each analogue to inhibit the activity of PTP1B was measured in the presence of 5 μM of the aminosteroid analogue. The assay uses para-nitro-phenyl phosphate (pNPP), a non-specific substrate to assess phosphatase activity. Phosphatase activity was based on the ability of PTP1B to catalyze the hydrolysis of pNPP to p-nitrophenol (pNP).

[3] = Body weight change in ob/ob mouse; format: in vivo; conditions: ob/ob mice; 5 or 10 mg/kg ip every 3 days, 4 doses; % change in body weight vs study day 0, up to 30 days
Description: as §1
Starting at study day 0, body weight measurements were taken every day for each group for up to 30 days. Percent change in body weight was calculated as the fractional response of body weight on study day X over the original body weight on study day 0.

ob/ob (Lep^ob) mouse [4] = test: Fasting blood glucose (FBG) in ob/ob mouse; format: in vivo; conditions: ob/ob mice; 5 or 10 mg/kg ip every 3 days, 4 doses; study day 14 after overnight fast
Description: as §1
On study day 13, all animal groups were fasted overnight. On study day 14, 25 μL of whole blood was collected and analyzed for the glucose level (mg/dL) using a glucose analyzer.

full length TCPTP = target: T2, full length TCPTP (Homo sapiens, UniProt P17706); test: Inhibition of TCPTP (pNPP hydrolysis, same manner as PTP1B assay); format: biochemical; conditions: 200 μM inhibitor; pNPP substrate; read-out: TCPTP % Inhib. at (200 μM)
T2 construct: except full length TCPTP was used as the enzyme
T2 sequence (P17706 1-415): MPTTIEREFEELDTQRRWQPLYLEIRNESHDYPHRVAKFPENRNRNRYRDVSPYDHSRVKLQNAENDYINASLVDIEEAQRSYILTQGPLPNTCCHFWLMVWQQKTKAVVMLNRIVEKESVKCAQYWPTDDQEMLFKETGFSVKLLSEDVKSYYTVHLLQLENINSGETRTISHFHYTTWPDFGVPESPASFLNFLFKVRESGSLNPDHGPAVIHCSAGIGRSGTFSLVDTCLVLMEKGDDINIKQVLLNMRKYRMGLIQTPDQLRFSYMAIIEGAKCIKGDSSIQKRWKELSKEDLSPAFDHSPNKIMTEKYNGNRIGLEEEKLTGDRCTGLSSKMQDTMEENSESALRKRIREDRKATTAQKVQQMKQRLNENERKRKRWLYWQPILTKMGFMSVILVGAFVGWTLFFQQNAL
Description: as §2
The aminosteroid analogues were also tested for their ability to inhibit the tyrosine phosphatase TCPTP as an indication of their potential toxicity by the inhibition of the immune response. The TCPTP inhibition assay was done in the same manner as the PTP1B assay except full length TCPTP was used as the enzyme and the inhibitor was at a concentration of 200 μM. The results of the TCPTP inhibition assays are shown in Table 1, column 4 and show three compounds that inhibit TCPTP less than 50% even at a […] greater concentration.

Row | Structure (SMILES) | change in vivo (ob/ob (Lep^ob) mouse [1]) | inhibition at 5 µM [2] | % BW Nader [3] | FBG % Change From Saline (ob/ob (Lep^ob) mouse [4]) | inhibition at 200 µM (full length TCPTP) | reduction in AbAUC compared to saline control (significance) (ob/ob (Lep^ob) mouse [1])
1 | CC(C)[C@@H](CC[C@@H](C)[C@H]1CC[C@H]2[C@@H]3[C@H](O)C[C@H]4C[C@@H](NCCCNCCCCNCCCN)CC[C@]4(C)[C@H]3CC[C@]12C)OS(=O)(=O)O [MSI-1436, reference compound] | -55.9% | 54% | −52.6% | −51.3% | – | –
2 | CCNC(=O)N(CCCN(C)C)C(=O)C(C)[C@H]1CCC2C3CC[C@H]4CC(NCCNC)CC[C@]4(C)C3CC[C@@]21C (some centres unmarked) [MSI-2500] | – | 0% | – | – | – | –
3 | CCN(C(=O)NCCCN(C)C)C(=O)C(C)[C@H]1CCC2C3CC[C@H]4CC(NCCNC)CC[C@]4(C)C3CC[C@@]21C (some centres unmarked) [MSI-2501] | – | 0% | – | – | – | –
4 | CC(C)CCC[C@@H](C)[C@H]1CCC2C3C[C@@H](O)[C@H]4C[C@@H](NCCN)CC[C@]4(C)C3CC[C@@]21C (some centres unmarked) [MSI-2502] | – | 0% | – | – | – | –
5 | CC(C)CCC[C@@H](C)[C@H]1CCC2C3C[C@@H](O)[C@H]4C[C@H](NCCCN)CC[C@]4(C)C3CC[C@@]21C (some centres unmarked) [MSI-2504] | – | 43% | – | – | 22% | –
6 | CC(C)CCC[C@@H](C)[C@H]1CCC2C3C[C@@H](O)[C@H]4C[C@@H](NCCCN)CC[C@]4(C)C3CC[C@@]21C (some centres unmarked) [MSI-2505] | – | 39% | – | – | – | –
7 | CC(C)CCC[C@@H](C)[C@H]1CCC2C3C[C@@H](O)[C@H]4C[C@H](NCCCNCCCCN)CC[C@]4(C)C3CC[C@@]21C (some centres unmarked) [MSI-2506] | – | 60% | – | – | 60% | –
8 | COC(=O)CC[C@@H](C)[C@H]1CCC2C3C(CC[C@@]21C)[C@@]1(C)CC[C@@H](NCCN2CCCCC2)C[C@H]1C[C@H]3O (some centres unmarked) [MSI-2507] | -45.8% | 94% | 1.4% | −9.4% | -11% | significant reduction
9 | COC(=O)CC[C@@H](C)[C@H]1CCC2C3C(CC[C@@]21C)[C@@]1(C)CC[C@@H](NCCCCNCc2cccnc2)C[C@@H]1C[C@H]3O (some centres unmarked) [MSI-2510] | -32.9% | 72% | 1.6% | 12.0% | 23% | significant reduction
10 | COC(=O)CC[C@@H](C)[C@H]1CCC2C3C(CC[C@@]21C)[C@@]1(C)CC[C@H](NCCCCNCc2cccnc2)C[C@@H]1C[C@H]3O (some centres unmarked) [MSI-2511] | -34.6% | 93% | −0.9% | 5.1% | 0% | significant reduction
11 | COC(=O)CC[C@@H](C)[C@H]1CCC2C3CC[C@@H]4C[C@H](NCc5ccccn5)CC[C@]4(C)C3C[C@H](O)[C@@]21C (some centres unmarked) [MSI-2512] | -5.8% | 90% | 0.4% | 45.8% | -2% | –
12 | CC(C)NCCNC1CC[C@]2(C)C3CC[C@@]4(C)C(CC[C@@H]4[C@H](C)CCC(=O)O)C3C[C@@H](O)[C@H]2C1 (some centres unmarked) [MSI-2515] | – | 89% | – | – | 19% | –
13 | CC(C)CCC[C@@H](C)[C@H]1CCC2C3C[C@@H](O)[C@H]4C[C@@H](NCCCNCCCCNCCCN)CC[C@]4(C)C3CC[C@@]21C (some centres unmarked) [MSI-2516] | – | 56% | – | – | 25% | –
14 | CC(C)CCC[C@@H](C)[C@H]1CCC2C3C[C@@H](O)[C@H]4C[C@H](NCCCNCCCCNCCCN)CC[C@]4(C)C3CC[C@@]21C (some centres unmarked) [MSI-2517] | – | 51% | – | – | 11% | –
15 | COC(=O)CC[C@@H](C)[C@H]1CCC2C3C(CC[C@@]21C)[C@@]1(C)CC[C@H](NCCN2CCCCC2)C[C@@H]1C[C@H]3O (some centres unmarked) [MSI-2518] | – | 102% | – | – | 12% | –
16 | COC(=O)CC[C@@H](C)[C@H]1CCC2C3C(CC[C@@]21C)[C@@]1(C)CCC(NCCNC(C)C)C[C@@H]1C[C@H]3O (some centres unmarked) [MSI-2519] | – | 102% | – | – | 26% | –
17 | COC(=O)CC[C@@H](C)[C@H]1CCC2C3CC[C@@H]4C[C@H](NCCNC(C)C)CC[C@]4(C)C3CC[C@@]21C (some centres unmarked) [MSI-2521] | – | 103% | – | – | 67% | –
18 | COC(=O)CC[C@@H](C)[C@H]1CCC2C3CC[C@@H]4C[C@@H](NCCNC(C)C)CC[C@]4(C)C3CC[C@@]21C (some centres unmarked) [MSI-2522] | – | 104% | – | – | 50% | –
19 | COC(=O)CC[C@@H](C)[C@H]1CCC2C3C[C@H](O)[C@@H]4C[C@H](NCCNC(C)C)CC[C@]4(C)C3CC[C@@]21C (some centres unmarked) [MSI-2523] | – | 101% | – | – | 8% | –
20 | COC(=O)CC[C@@H](C)[C@H]1CCC2C3C[C@H](O)[C@@H]4C[C@@H](NCCNC(C)C)CC[C@]4(C)C3CC[C@@]21C (some centres unmarked) [MSI-2524] | – | 103% | – | – | 15% | –
21 | COC(=O)CC[C@@H](C)[C@H]1CCC2C3CC[C@@H]4C[C@@H](NCCNC(C)C)CC[C@]4(C)C3C[C@H](O)[C@@]21C (some centres unmarked) [MSI-2526] | – | 104% | – | – | – | –
22 | COC(=O)CC[C@@H](C)[C@H]1CCC2C3C(CC[C@@]21C)[C@@]1(C)CCC(NCCNC(C)C)C[C@@H]1C[C@H]3NC(=O)OC (some centres unmarked) [MSI-2528] | – | 75% | – | – | 2% | –
23 | COC(=O)CC[C@@H](C)[C@H]1CCC2C3C(CC[C@@]21C)[C@@]1(C)CC[C@@H](NCCNC(C)C)C[C@@H]1C[C@H]3SC (some centres unmarked) [MSI-2529] | – | 64% | – | – | 4% | –
24 | COC(=O)CC[C@@H](C)[C@H]1CCC2C3C(CC[C@@]21C)[C@@]1(C)CCC(NCCNC(C)C)C[C@@H]1C[C@H]3S(C)(=O)=O (some centres unmarked) [MSI-2530] | – | 46% | – | – | 1% | –
25 | COC(=O)CC[C@@H](C)[C@H]1CCC2C3C(CC[C@@]21C)[C@@]1(C)CC[C@H](NCCNC(C)C)C[C@@H]1C[C@H]3S(C)(=O)=O (some centres unmarked) [MSI-2531] | – | 48% | – | – | 1% | –
26 | COC(=O)CC[C@@H](C)[C@H]1CCC2C3C(CC[C@@]21C)[C@@]1(C)CCC(NCCN(C)C)C[C@H]1C[C@H]3O (some centres unmarked) [MSI-2533] | – | – | – | – | 5% | –
27 | COC(=O)CC[C@@H](C)[C@H]1CCC2C3CC[C@@H]4C[C@H](NCCN(C)C)CC[C@]4(C)C3CC[C@@]21C (some centres unmarked) [MSI-2534] | – | – | – | – | 0% | –
28 | COC(=O)CC[C@@H](C)[C@H]1CCC2C3CC[C@@H]4CC(NCCN(C)C)CC[C@]4(C)C3CC[C@@]21C (some centres unmarked) [MSI-2535] | – | – | – | – | 8% | –
